Consider three substances from patent US7579439B2, “Modulation of IL-2- and IL-15-mediated T cell responses” (Beth Israel Deaconess Medical Center, Inc., priority 2000, dated 2009).

Test [1] has as its system IL-2Rγ+ BAF-BO3 cell transfectants that express the IL-2Rβ subunit. Kind of test: BAF-BO3 cell proliferation assay (IL-2Rβ transfectants). The test is classed as cell-based. On the procedure:
(§1) In the next series of experiments, the FLAG-HMK-IL-15 fusion protein was tested to determine whether it could function as a biologically active growth factor.

The test system of test [2] is IL-15 binding sites on PHA-activated human PBMCs. Kind of test: Cytofluorometric analysis of binding to PBMCs (anti-FLAG biotinylated Ab, streptavidin-RED670). The conditions noted are these: flow cytometry. On the procedure:
The FLAG-HMK-IL-15 fusion protein, biotinylated anti-FLAG antibody, and streptavidin-RED670 were employed to detect expression of IL-15 binding sites on human PBMCs by cytofluorometric analysis. The PBMCs tested were either freshly isolated or PHA-activated. These cells were washed and incubated with either medium alone or FLAG-HMK-IL-15 followed by anti-FLAG biotinylated Ab and streptavidin-RED670. The stained cells were analyzed by flow cytometry. […] Both activated CD4^+ and CD8^+ cells express IL-15α chains. Activation induced IL-15Rα chains were also detected on CD14^+ (monocyte/macrophage) cells and CD16^+ (natural killer) cells.
PHA-activated PBMCs were washed and incubated with medium alone, or with the FLAG-HMK-IL-15 double mutant. The cells were then incubated with an anti-FLAG biotinylated antibody and stained with streptavidin conjugated to RED670. The stained cells were analyzed by flow cytometry.
(In general: A flow cytometer gives signals particle by particle.)

Test [3] addresses T1, human IL-15Rα subunit (Homo sapiens, UniProt Q13261).
T1 construct: endogenous in cells
Kind of test: Cross-linking of [32P]-FLAG-HMK-IL-15 to PHA-activated PBMCs (DSS, SDS-PAGE autoradiography). In kind it is binding. The note with it: cross-linked with DSS; band lost with molar excess of hIL-15. Here is the method:
The purified FLAG-HMK-IL-15 fusion protein was tested to determine whether it interacts with cell surface IL-15 receptors. As described above, [^32P]-FLAG-HMK-IL-15 was added to cultures of PBMCs that were activated by a mitogen, PHA. In order to permanently bind interactive proteins to one another, the chemical cross-linker disuccinimidyl suberate (DSS) was added. The cells were washed, lysed, centrifuged, and detergent-soluble proteins were separated by SDS-PAGE. […] The identity of this band as the IL-15Rα subunit was confirmed by cross-linking experiments conducted in the presence of a molar excess of hIL-15.

Test [4] has as its system PHA-activated human PBMCs. Kind of test: [3H]-TdR incorporation assay, PHA-activated PBMCs. In kind it is cell-based. Here is the method: as §1
Test [5] relates to parental BAF-BO3 cells transfected with a vector lacking IL-2Rβ chain sequences. Kind of test: BAF-BO3 cell proliferation assay (parental cells, vector lacking IL-2Rβ). In kind it is cell-based. The conditions noted are these: parental BAF-BO3 cells lacking IL-2Rβ. Here is the method:
In the next series of experiments, the FLAG-HMK-IL-15 fusion protein was tested to determine whether it could function as a biologically active growth factor. […] Thus, FLAG-HMK-IL-15 is a biologically active growth factor that requires expression of IL-2Rβ chains upon target cells in order to stimulate cellular proliferation.

Test [6] concerns leukemic cell lines MOLT-14, YT, HuT-102, 2A and 2B. Kind of test: FACS analysis of leukemic cell lines stained with FLAG-HMK-IL-15. In kind it is binding. The note with it: flow cytometry. Here is the method: The cells treated were obtained from the leukemic cell lines MOLT-14, YT, HuT-102, and from cell lines currently being established at Beth Israel Hospital (Boston, Mass.), and named 2A and 2B. The cultured cells were washed and incubated with either medium alone or with medium containing the FLAG-HMK-IL-15 wild-type polypeptide. The cells were then incubated with the biotinylated anti-FLAG antibody and stained with RED670-conjugated streptavidin. The stained cells were analyzed by flow cytometry.

Test [7] concerns T cells at the second cell division in vivo. Kind of test: In vitro proliferation of sorted in vivo dividing T cells (3H-TdR uptake). In kind it is cell-based, mice. The conditions noted are these: IL-2 in doses as high as; IL-15 5 ng/ml; 48 hours.
Description: CFSE-labeled lymphocytes were stimulated in vivo for three days and cell division was analyzed by examining the CFSE profile. T cells in the second cell division were sorted and cells (1×10^4) were cultured in vitro with IL-2 or IL-15 for two days. Cellular proliferation was determined by ^3H-TdR uptake. The results are presented as the mean CPM±SD of triplicate assays.
Cell sorting and in vitro proliferation assays were carried out as follows. CFSE-labeled cells were prepared from irradiated allogeneic hosts three days after intravenous injection of labeled cells, and cell proliferation in vivo was identified by analysis of the cells' CFSE profile. The second cell division was selected, gated, and sorted with FACS Vantage™. Cells (1×10^4/ml) were resuspended in RPMI 1640 medium with 10% FCS and 1% penicillin and streptomycin, and stimulated with IL-2 (40 μ/ml to 500 μ/ml) or IL-15 (5 ng/ml) for 48 hours. Cells were pulsed with 1 mCi 3H-TdR (Amersham, Boston, Mass.) for 16 hours and ^3H-TdR uptake was determined by scintillation counting (Beckman Instrument, Columbia, Md.).

T1 sequence (Q13261 31-267): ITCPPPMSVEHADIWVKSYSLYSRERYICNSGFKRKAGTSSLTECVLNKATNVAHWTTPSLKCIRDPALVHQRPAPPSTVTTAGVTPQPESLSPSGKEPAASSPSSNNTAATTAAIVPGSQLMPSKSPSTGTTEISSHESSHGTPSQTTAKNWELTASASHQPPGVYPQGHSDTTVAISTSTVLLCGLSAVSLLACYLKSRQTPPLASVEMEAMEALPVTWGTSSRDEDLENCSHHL

“FLAG-HMK-IL-15 double mutant: human IL-15 protein bearing a double mutation (Q149D; Q156D), FLAG-HMK tagged”: in test [1] (30 μl versus 20 μL of approximately 50 μg/ml), the “inhibition of BAF-BO3 proliferation” value is given as “inhibit BAF-BO3 proliferation in a dose-dependent manner”. The “binding to PHA activated PBMCs” value in test [2] is “bind PHA activated human PBMCs was demonstrated”.

“FLAG-HMK-IL-15: IL-15 polypeptide having an N-terminus covalently bound to the 18 amino acid FLAG-HMK-sequence”: the “binding to the IL-15Rα subunit on the surface of mitogen-activated PBMCs” value in test [3] is reported as “site specific binding”. Moreover, the “stimulation of cell proliferation” value in test [4] was “proliferate in response to”. Besides, the stimulation of proliferation entry in test [1] (BAF-BO3 transfectants expressing IL-2Rβ) was “stimulates proliferation”; in test [5], “does not, however, stimulate the proliferation”. Moreover, the “binding to PHA activated PBMCs” value in test [2] was “blocked by a molar excess of rIL-15”. For the same substance, the “binding to leukemia cells” value in test [6] is “bind leukemia cells was shown”.

In the case of IL-15: recombinant human IL-15, the “T cell proliferation by 3H-TdR uptake” value in test [7] is given as “stimulated vigorous cell proliferation”.
